Drawing on PubChem BioAssay (NCI), this text covers GI50 and TGI for 14 compounds.

Among the test systems are COLO 205 colon; DU-145 prostate; OVCAR-5 ovarian; RPMI-8226 leukemia; SK-MEL-2 melanoma; SK-OV-3 ovarian; SR leukemia; TK-10 renal; U251 CNS; HS 578T breast.
Holding throughout (experiment): NCI tumour cell line growth inhibition, 48 h

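Values below derive from 48-hour exposures of cells grown in 96-well plates, with endpoints linearly interpolated between the two concentrations bracketing the appropriate inhibition level. At the GI50, growth is halved. TGI marks complete inhibition of growth.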

Regarding `O=C(N/N=C/c1ccc(Cl)cc1)c1[nH]c2ccc(Cl)cc2c1-c1ccccc1`, the GI50 was 0.202 µM with COLO 205 colon; 0.104 µM in the test on DU-145 prostate; 0.573 µM in the test with OVCAR-5 ovarian; 0.0193 µM in the test on RPMI-8226 leukemia; 0.332 µM with SK-MEL-2 melanoma; 0.387 µM in the test with SK-OV-3 ovarian. The figures for the GI50 with SR leukemia, in the test with TK-10 renal and in the test with U251 CNS were 0.133 µM, 3.3 µM and 0.255 µM, respectively. Further, the TGI was 0.406 µM with COLO 205 colon; 0.367 µM with DU-145 prostate; > 100 µM in the test with OVCAR-5 ovarian; 0.0556 µM in the test on RPMI-8226 leukemia; 35.5 µM with SK-MEL-2 melanoma; 2.09 µM in the test on SR leukemia. Moreover, the TGI worked out at 59.7 µM in the test with TK-10 renal and 4.68 µM with U251 CNS.

As for `CC1(C)C(=O)C=CC2(C)C1CC(O)C1(C)C2CCC2(C)C(c3ccoc3)OC(=O)C3OC321` (stereo not drawn), the TGI was 50.3 µM in the test on COLO 205 colon; 51.4 µM in the test with DU-145 prostate; > 100 µM in the test on OVCAR-5 ovarian; 47.9 µM in the test with RPMI-8226 leukemia; 35.1 µM in the test with SK-MEL-2 melanoma; > 100 µM in the test with SK-OV-3 ovarian. The TGI in the test with TK-10 renal amounted to 37.5 µM; with U251 CNS, 40.5 µM.

On to `CC1(O)CCC2(C)C(=O)C1(C)CCC21OCCO1` (stereo not drawn), for which the TGI with COLO 205 colon, in the test with OVCAR-5 ovarian, in the test with RPMI-8226 leukemia, in the test with SK-MEL-2 melanoma, with SK-OV-3 ovarian and in the test on SR leukemia was > 100 µM in each case. For the same compound, the TGI in the test with TK-10 renal and with U251 CNS was > 100 µM in each case.

As to `Cc1c(Cl)cccc1NC(=O)/C(Cl)=C(\Cl)C(=O)O`, the TGI in the test with COLO 205 colon came out at 21.6 µM; with OVCAR-5 ovarian it was 30.6 µM; in the test on RPMI-8226 leukemia, 56.5 µM; with SK-MEL-2 melanoma, 49.2 µM; in the test on SK-OV-3 ovarian it was 33.3 µM; with SR leukemia it was 39.6 µM. Further, the TGI came out at 35.2 µM with TK-10 renal and 32.7 µM with U251 CNS.

Regarding `CCC[CH2][Sn]1([CH2]CCC)[O]C(=O)c2ccc(N)cc2[O]1`, the GI50 is 0.594 µM with COLO 205 colon; 1.26 µM in the test with DU-145 prostate; 1.77 µM in the test on OVCAR-5 ovarian; 0.143 µM in the test on RPMI-8226 leukemia; 0.141 µM in the test with SK-MEL-2 melanoma; 1.34 µM with SK-OV-3 ovarian. The GI50 in the test with SR leukemia is 0.549 µM; in the test with TK-10 renal, 0.528 µM; in the test with U251 CNS, 0.471 µM. Also, the TGI in the test with COLO 205 colon is 1.98 µM; in the test with DU-145 prostate it was 2.52 µM; in the test on OVCAR-5 ovarian, 3.3 µM; in the test with RPMI-8226 leukemia it was 1.79 µM; in the test on SK-MEL-2 melanoma, 0.913 µM; with SK-OV-3 ovarian, 2.92 µM. The TGI in the test with TK-10 renal was 1.69 µM; in the test on U251 CNS it was 1.81 µM.

As to `O=C1CCN2CCC(=O)c3c2c(cc2ccccc32)N1`, the TGI in the test on COLO 205 colon, with OVCAR-5 ovarian, in the test with RPMI-8226 leukemia, with SK-MEL-2 melanoma, in the test with SK-OV-3 ovarian and in the test with TK-10 renal was > 100 µM throughout. The TGI in the test on U251 CNS was > 100 µM.

In the case of `COc1c(Sc2ccccc2)cc(Sc2ccccc2)c2cccnc12`, the TGI in the test with COLO 205 colon was 39 µM; in the test with OVCAR-5 ovarian, > 100 µM; in the test on RPMI-8226 leukemia it was 50 µM; in the test with SK-MEL-2 melanoma, 42.6 µM; in the test on SK-OV-3 ovarian, > 100 µM; with TK-10 renal, 81.3 µM. This compound also showed a TGI in the test on U251 CNS of 70.7 µM.

For the compound `CCN(CC)CCOc1c(OC)c(Br)cc2c(C)c(C(=O)OC)oc12`, the GI50 with COLO 205 colon is 0.925 µM; in the test on HS 578T breast, 1.44 µM; in the test on OVCAR-5 ovarian, 3.14 µM; in the test with RPMI-8226 leukemia, 0.186 µM; in the test with SK-MEL-2 melanoma, 3.17 µM; in the test with SK-OV-3 ovarian, 1.29 µM. For the same compound, the GI50 was 0.542 µM with SR leukemia, 1.12 µM with TK-10 renal and 0.28 µM in the test on U251 CNS. The TGI in the test on COLO 205 colon was found to be 3.68 µM; in the test with HS 578T breast, 3.82 µM; in the test with OVCAR-5 ovarian, 9.29 µM; in the test with RPMI-8226 leukemia, 0.834 µM; in the test on SK-MEL-2 melanoma, 50 µM; in the test with SK-OV-3 ovarian, 4.1 µM. The TGI with SR leukemia was found to be 1.31 µM; with TK-10 renal, 2.99 µM; in the test with U251 CNS, 0.97 µM.

For the compound `CCOC(=O)C1=C(Nc2ccc(Cl)c(Cl)c2)OC/C1=N\NC(=O)Cc1ccccc1`, the TGI in the test with COLO 205 colon, in the test with OVCAR-5 ovarian, with RPMI-8226 leukemia, in the test on SK-MEL-2 melanoma, with SK-OV-3 ovarian and in the test with TK-10 renal was > 100 µM each time. Also, the TGI in the test with U251 CNS is > 100 µM.

For the compound `COC(=O)C(CC(=O)c1c[nH]c2ccccc12)c1c[nH]c2ccccc12` (stereo not drawn), the TGI in the test with OVCAR-5 ovarian stood at 42.1 µM; in the test on RPMI-8226 leukemia, 44.8 µM; in the test on SK-MEL-2 melanoma it was 44.2 µM; with SK-OV-3 ovarian it was 69.9 µM; with TK-10 renal it was 76.9 µM; with U251 CNS, 50.4 µM.

As to `Clc1ccc2c(c1)[nH]c1c2nc2sccn21`, the TGI in the test on COLO 205 colon, in the test with OVCAR-5 ovarian, with RPMI-8226 leukemia, with SK-MEL-2 melanoma, with SK-OV-3 ovarian and in the test with SR leukemia was > 100 µM in each case. Further, the TGI in the test on TK-10 renal and in the test on U251 CNS was > 100 µM throughout.

In the case of `Cc1c(C(=O)CC(=O)C(=O)Nc2cc(Cl)ccc2Cl)[n+](=O)c2ccccc2n1[O-]`, the TGI in the test on COLO 205 colon was 69.6 µM; in the test with OVCAR-5 ovarian, > 100 µM; with RPMI-8226 leukemia it was 57.8 µM; in the test on SK-MEL-2 melanoma, > 100 µM; in the test on SK-OV-3 ovarian, > 100 µM; in the test on SR leukemia, 63.6 µM. Also, the TGI in the test with TK-10 renal and in the test on U251 CNS was > 100 µM throughout.

Regarding `COc1ccccc1NC(=O)C1=C(C)NC(C)=C(C(=O)Nc2ccccc2OC)C1c1ccc(N(C)C)cc1`, the TGI was 92.1 µM in the test on COLO 205 colon; > 100 µM in the test on OVCAR-5 ovarian; 55.4 µM in the test with RPMI-8226 leukemia; 48.2 µM in the test on SK-MEL-2 melanoma; 84.5 µM with SK-OV-3 ovarian; > 100 µM in the test with TK-10 renal. The TGI in the test on U251 CNS was > 100 µM.

With `NC(=O)c1csc(C2CCC(CO)O2)n1` (stereo not drawn), the TGI with COLO 205 colon, in the test on OVCAR-5 ovarian, in the test with RPMI-8226 leukemia, with SK-MEL-2 melanoma, in the test with SK-OV-3 ovarian and in the test on TK-10 renal was > 100 µM each time. The TGI with U251 CNS was > 100 µM.
